Measurements taken from patent US8679526B2, “Antimicrobial peroxidase compositions” (Flen Pharma N.V., priority 2005, dated 2014).
Values after ≈ are worked out from the molar mass of the structure shown.

How the values were obtained:
S. aureus = test: Antibacterial activity on S. aureus of oxidase/peroxidase with enhancing agents; format: cell-based, Staphylococcus aureus; conditions: for antibacterial activity of compositions with enhancing agent, substrate and enzyme: FIG. 2; for enhancing activity on glucose/peroxidase antibacterial activity: present experimental setting; for Enhancing effect on oxidase/peroxidase assay: antimicrobial effect; for bactericidal capacity when mixed with the enzyme-substrate solution / effect on cell survival of the separate systems: FIG. 1; for bactericidal capacity when mixed with the enzyme-substrate solution: enhancing agent and ES; for effect on cell survival of the separate systems: enhancing agent only
Protocol: Bacterial cells (S. aureus) were plated on Trypticase Soybean Agar plates (Becton Dickinson) and incubated overnight at 37° C. Cells were recovered from plates and mixed with NaCl-peptone broth buffer (Merck). The amount of medium is adjusted to give a bacterial suspension with a cell density of OD600=0.25 for bacteria.
For the examples described in the following examples, a fresh dilution of 0.25% (v/v) enzyme-substrate (Biovert™) stock solutions were prepared for each independent test. The Biovert™ enzyme stock solution contains 1527 U/ml lactoperoxidase; 2016 U/ml glucose oxidase; the Biovert™ substrate stock solution comprises: 55% (w/v) glucose, 0.51% (w/v) KSCN, 0.73% (w/v) KI.
In order to assess the synergistic action of the enhancing agent on the enzyme-substrate enhancing agent, the concentration of enzyme-substrate was adjusted to obtain conditions wherein the oxidase/peroxidase in a hydrogel performs limited but measurable antibacterial activity. The above mentioned (0.25% (v/v)) solution has accordingly been further diluted to 0.017% (v/v).
(§1) A 0.33% (w/v) Na-alginaat (Kelset), 0.66% (v/v) PEG400 gel solution was prepared in water, autoclaved and subsequently cooled to room temperature.
(§2) For the antibacterial assay the following components are mixed: 100 μl of bacterial cell suspension, 100 μl enzyme-substrate master solution (0.25%), 1 g (=1 ml) gel solution, 0.1-1 mg enhancing agent, 300 μl milliQ water. Final concentrations of the enzyme/substrate in the reaction mixture are 0.015 U/ml glucose oxidase, 0.011 U/ml lactoperoxidase, 0.00007% (w/v) potassium thiocyanate, 0.0001% (w/v) potassium iodide, 0.0076% glucose, and 0.066-0.66 mg/ml enhancing agent.

[1] = cited from earlier work
Beta-carotene assay = conditions: for Antioxidant properties: Beta-carotene assay: 5 mMole/liter in 1-octanol; for antioxidant performance in the beta carotene bleaching assay: FIG. 3
Protocol: In this assay, the antioxidant activity of a component is assessed by its ability to prevent bleaching of a beta-carotene solution by radicals formed upon illumination.
A beta-carotene solution (20 mg/ml) was prepared freshly in 1-octanol (Sigma) and 900 μl aliquots were transferred to 2 ml spectrophotometer cuvettes. 100 μl of 50 mMole/liter solutions of enhancing agents of the invention (dissolved in 1-octanol) were added to the solution (final concentration of the enhancing agents is 5 mMole/liter). The solutions were illuminated for up to 5 hours and spectrophotometric analysis was carried out at indicated time points.

[2] = DPPH-radical bleaching assay; conditions: for Antioxidant properties: DPPH assay: 5 mMole/liter in 1-octanol; for potency as reducer / antioxidant efficiency: FIG. 4
Protocol: DPPH (1,1-DiPhenyl-2-PicrylHydrazyl) is a cell-permeable, stable free radical that acts as a hydrogen radical scavenger, and is used as a screening tool for detecting free radical scavenging activity of antioxidants. When a radical solution is brought into contact with an antioxidant, the radical-molecule is reduced and thereby looses its characteristic purple colour. This “bleaching” can be monitored by spectrophotometric analysis.
A DPPH-radical solution (15 mg/ml) was prepared freshly in 1-octanol (Sigma) and 900 μl aliquots were transferred to 2 ml spectrophotometer cuvettes. 100 μl of 50 mMole/liter solutions of enhancing agents (dissolved in 1-octanol) were added to the solution (final concentration of the enhancing agents is 5 mMole/liter). Spectrophotometric analysis of the samples was carried out within 5 minutes, in order to prevent quenching caused by free (e.g. air born) radicals.

Candida albicans = test: Growth retardation of Candida albicans in SD broth with enzyme/substrate system; format: cell-based; conditions: FIG. 9; 0.02% dilution of enzyme/substrate
Protocol: A yeast cell culture (A600=0.05) was grown in Sabouraud Dextrose (SD) broth (Difco™, Becton Dickinson) in the presence of a 0.02% dilution (suboptimal concentration) of the enzyme/substrate system described in example 1.

[3] = tested on: MRSA (methicillin resistant S. aureus) bacteria; test: Antibacterial activity on MRSA of oxidase/peroxidase with enhancing agents; format: cell-based, Staphylococcus aureus; conditions: for enhancing effect on the peroxidase/oxidase activity / antibacterial effect of compound alone: FIG. 5; for enhancing effect on the peroxidase/oxidase activity: ES + enhancing agent; for antibacterial effect of compound alone: enhancing agent alone
Protocol: The effect of vanillin and guaiacol on the peroxidase/oxidase activity was assayed on MRSA (methicillin resistant S. aureus) bacteria using growth conditions and assay conditions as described in example 1.

[4] = tested on: mouse 3T3 fibroblast cells; test: Cell toxicity (MTT) of oxidase/peroxidase alginate gel with guaiacol; format: cell-based; conditions: 200 μM guaiacol in gel, diluted 1 g in 9 ml, 24 hours; p=0.32
Protocol: (§3) HaCat keratinocytes cells and mouse 3T3 fibroblast cells were grown in the following growth medium: DMEM medium (high glucose; Sigma) supplemented with heat inactivated calf serum (10%) (Life Technologies), L-glutamine (4 mM) (Sigma) and Streptomycin/Penicillin (100 U) (Sigma). […] As a control an identical gel without guaiacol was prepared. One gram of the alginate gel was dissolved in 9 ml growth medium (diluted alginate gel). Cells were seeded at subconfluency. After overnight incubation at 37° C., 5% CO2, growth medium was replaced by diluted alginate gel and the cells were incubated at 37° C., 5% CO2 for another 24 hours. […] Cells were incubated in this MTT-medium for an additional 3 h. Cell viability and metabolism was assayed by determining the chromophoric conversion product of MMT at 570 nm.

[5] = tested on: HaCat keratinocytes cells; test: as above; format: cell-based; conditions: 200 μM guaiacol in gel, diluted 1 g in 9 ml, 24 hours; p=0.31
Protocol: as §3

[6] = tested on: MRSA (Methicillin-Resistant Staphylococcus aureus); test: Growth retardation of MRSA in TS broth with enzyme/substrate system; format: cell-based; conditions: FIG. 8; 0.08% dilution of enzyme/substrate
Protocol: A bacterial cell culture (A600=0.02) was grown in Tryptic Soy (TS) broth (Difco™, Becton Dickinson) in the presence of a 0.08% dilution (suboptimal concentration) of the enzyme/substrate system described in example 1. […] (see FIG. 8). It is observed that this effect is maintained for a significant time period.

E. coli = test: Antibacterial activity on E. coli of enhancing agents and oxidase/peroxidase; format: cell-based, Escherichia coli; conditions: FIG. 7; 6 hours of incubation
Protocol: Experiments using the conditions described in Example 1 and 2 were performed with Gram-negative bacteria (E. coli).

[7] = Dispersion or dissolution in the hydrophilic gel setting; format: physicochemical; conditions: present experimental setting, hydrogel
Protocol: as §1, §2

| Compound | Solubility in water [1] [µg/mL] | Antioxidant properties: Beta-carotene assay (Beta-carotene assay) | Antioxidant properties: DPPH assay [2] | Enhancing effect on oxidase/peroxidase assay (S. aureus) | also measured |
| --- | --- | --- | --- | --- | --- |
| O=Cc1ccc(O)c(O)c1 [3,4 dihydroxybenzaldehyde, reference compound] |  |  |  |  | antibacterial activity of compositions with enhancing agent, substrate and enzyme (S. aureus): less pronounced |
| N[C@@H](Cc1c[nH]c2ccc(O)cc12)C(=O)O [5-hydroxy-tryptophane, reference compound] |  |  |  |  | enhancing activity on glucose/peroxidase antibacterial activity (S. aureus): did not show an enhancing activity |
| COc1cc(C(C)=O)ccc1O [Apocynin, 1-(4-hydroxy-3-methoxy-phenyl)ethanone] | 500 (≈ 3.01 mM) |  |  |  |  |
| Cc1cc(C(C)(C)C)c(O)c(C(C)(C)C)c1 [BHT, di-tert-butylated hydroxytoluene, reference compound] |  | +++ | ++ | + | potency as reducer / antioxidant efficiency [2]: less potent reducers than gallic acid and propyl gallate |
| CCOc1cc(C=O)ccc1O [Ethylvanillin, 3-ethoxy-4-hydroxy-benzaldehyde] |  |  |  | + | bactericidal capacity when mixed with the enzyme-substrate solution (S. aureus): markedly enhanced the bactericidal capacity; effect on cell survival of the separate systems (S. aureus): only moderately affected cell survival |
| O=C(O)c1cc(O)c(O)c(O)c1 [Gallic acid, reference compound] |  | +++ | +++ | + | antibacterial activity of compositions with enhancing agent, substrate and enzyme (S. aureus): less pronounced |
| COc1ccccc1O [Guaiacol, 2-methoxyphenol] |  | ++ | +++ | + | suppression of fungal growth on addition to enzyme/substrate system (Candida albicans): additional suppression of the fungal growth; enhancing effect on the peroxidase/oxidase activity [3]: enhancing effect; antibacterial effect of compound alone [3]: limited effect; enhancing effect on peroxidase/oxidase activity ([3]; FIG. 6, different concentrations of guaiacol): significant enhancing effect; antioxidant performance in the beta carotene bleaching assay (Beta-carotene assay): very effective; potency as reducer / antioxidant efficiency [2]: nearly as efficient as gallic acid and propyl gallate; metabolic activity of cells (MTT), alginate hydrogel with versus without guaiacol [4]: no statistical difference; metabolic activity of cells (MTT), alginate hydrogel with versus without guaiacol [5]: no statistical difference; suppression of bacterial growth on addition to enzyme/substrate system [6]: additional suppression of the bacterial growth; bactericidal capacity when mixed with the enzyme-substrate solution (S. aureus): markedly enhanced the bactericidal capacity; effect on cell survival of the separate systems (S. aureus): only moderately affected cell survival; antibacterial effectiveness in combination with the enzyme-substrate (E. coli): more effective than enzyme-substrate alone |
| CCOc1ccccc1O [Guaiethol, 2-ethoxyphenol] | 3100 (≈ 22.4 mM) | ++ | +++ | + | antioxidant performance in the beta carotene bleaching assay (Beta-carotene assay): very effective; potency as reducer / antioxidant efficiency [2]: nearly as efficient as gallic acid and propyl gallate |
| COc1ccc(C=O)cc1O [Isovanilline, 3-hydroxy-4-methoxy-benzaldehyde] | 11000 (≈ 72.3 mM) | ± | − | − | antibacterial activity of compositions with enhancing agent, substrate and enzyme (S. aureus): less pronounced |
| COc1cc(O)ccc1O [Methoxyhydroquinone, 2-methoxybenzene-1,4-diol] | 33000 (≈ 235 mM) |  |  |  |  |
| CCCOC(=O)c1cc(O)c(O)c(O)c1 [Propylgallate, propyl gallate, reference compound] |  | +++ | +++ | ± | antibacterial activity of compositions with enhancing agent, substrate and enzyme (S. aureus): less pronounced |
| CCOc1cc(C=O)ccc1O [Quantrovanil, 3-ethoxy-4-hydroxy-benzaldehyde] | 280 (≈ 1.68 mM) |  |  |  |  |
| COc1cc(C(=O)O)ccc1O [Vanillic acid, 4-hydroxy-3-methoxy-benzoic acid] |  | ± |  | + |  |
| COc1cc(C=O)ccc1O [Vanillin, 4-hydroxy-3-methoxy-benzaldehyde] |  | − | − | + | suppression of fungal growth on addition to enzyme/substrate system (Candida albicans): additional suppression of the fungal growth; enhancing effect on the peroxidase/oxidase activity [3]: enhancing effect; antibacterial effect of compound alone [3]: limited effect; antioxidant performance in the beta carotene bleaching assay (Beta-carotene assay): performed poorly; potency as reducer / antioxidant efficiency [2]: performed poorly; bactericidal capacity when mixed with the enzyme-substrate solution (S. aureus): markedly enhanced the bactericidal capacity; effect on cell survival of the separate systems (S. aureus): only moderately affected cell survival; antibacterial effectiveness in combination with the enzyme-substrate (E. coli): more effective than enzyme-substrate alone |
| COc1cccc(O)c1 [m-Guaiacol, 3-methoxyphenol] | 500 (≈ 4.03 mM) |  |  |  |  |
| COc1cccc(C=O)c1O [o-vanillin, 2-hydroxy-3-methoxy-benzaldehyde] | 500 (≈ 3.29 mM) |  |  |  |  |
| COc1cc(C=O)cc(OC)c1O [syringaldehyde] |  |  |  |  | dispersion or dissolution in hydrophilic media [7]: could not be properly dispersed or dissolved |
| N[C@@H](Cc1ccc(O)cc1)C(=O)O [tyrosine, reference compound] |  |  |  |  | enhancing activity on glucose/peroxidase antibacterial activity (S. aureus): did not show an enhancing activity |
| Vitamin E [reference compound] |  | + | + | − | potency as reducer / antioxidant efficiency [2]: less potent reducers than gallic acid and propyl gallate |
